Values joined by “and” are separate entries in the source; they are usually repeats but may differ in a detail not shown here. Equal values may be shown once.
What was measured:
Vero cells = type: cell-based, monkey
[1] = system: T/G HA-VSMC cells (human aortic smooth muscle cell system); type: cell-based
[2] = system: T/G Human Aortic Smooth Muscle Cells; type: cell-based; as to Growth score: key: −: Lethal treatment, no cells left viable, all rounded, shriveled and dead; −/+: Some treated cells remain viable, about equal amount of clearly dead cells; +/−: Most cells remain viable, detectable number of dead cells; 1+: All cells appear viable, same density as when treated; 2+: Minimal proliferation, compared to control; 3+: Moderate proliferation compared to control; 4+: Maximal growth, unaffected by treatment

SMILES: O=C(CCNc1c2ccccc2nc2ccccc12)OCCN(CCCl)CCCl [β-alanine, N-(acridin-9-yl), 2-[bis(2-chloroethyl)amino]ethyl ester]
- Effect on the increase in the number of cultured cells (Vero cells): inhibited the increase in the number
- Effect on the increase in the number of cultured cells [1]: inhibited the increase in the number
- Effect on the increase in the number of cultured cells [2]: inhibited the increase in the number of cultured Human Aortic Smooth Muscle Cells in a dose-dependent manner with a relatively broad therapeutic window
- Growth score [2]: −/+ and 1+ and +/− and 3+ and 4+

SMILES: NC(Cc1ccc(N(CCCl)CCCl)cc1)C(=O)O (centres unmarked) [Melphalan, melphalan, reference compound]
- Growth score [2]: 2+ and 1+ and 3+ and 4+

From patent US20010036948A1 (priority 1998, published 2001)
